Active and inactive are the calls of the source.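 Rule for the calls: active = compounds whose fitted half-maximal concentration in the cell-protection dose series is at or below a set limit; inactive = the rest.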
What follows are compounds tested on H9c2 cardiomyocytes, 2-deoxyglucose stress, ATP luminescence, 2 h (assay: protection of cardiomyocytes from 2-deoxyglucose injury, dose response, cell-based, 2-deoxyglucose stress, uHTS hits (AID 588780)).
For `N#C/C(=C\c1ccc(-c2cccc([N+](=O)[O-])c2)o1)C(=O)NCCN1CCOCC1`, the IC50 was > 79 µM (inactive).
With `O=C(NCc1ccco1)C(c1ccccc1)N(C(=O)Cc1cccs1)c1ccccc1F` (centres undefined) the IC50 was > 79 µM (inactive).
Work on `O=c1[nH]nc(CNc2ccc(C(F)(F)F)cc2)c2ccccc12` yielded an IC50 of 15.1 µM.
`N#Cc1cnn2cc(-c3ncc(C(F)(F)F)cc3Cl)cnc12` was tested, and the IC50 was 27.6 µM.
`CN(CC(=O)Nc1ccccc1Cl)C(=O)CCc1nc2ccccc2c(=O)[nH]1` was tested, and the IC50 was 38 µM (inactive).
`O=C(Cn1[nH]c(=O)c2ccccc2c1=O)NC1CCCCCC1` was tested, and the IC50 was > 79 µM (inactive).
For `COc1ccc(CCNC(=O)c2cc(C(=O)c3cc(C)ccc3O)cn(CCc3ccc(OC)cc3)c2=O)cc1`, the IC50 was > 79 µM (inactive).
With `CCOc1cc(/C=N\NC(=O)c2ccc(NC(=O)C(C)(C)C)cc2)ccc1OC(=O)c1cccc(C)c1` the IC50 was 15.3 µM.
With `COc1cc(Nc2nc3ccccc3n3nnnc23)cc(OC)c1OC` the IC50 was > 79 µM (inactive).
`COc1ccc(C(C(=O)NC2CCCC2)N(C(=O)c2snc(C(N)=O)c2N)c2cccc(O)c2)cc1` (centres undefined) was tested, and the IC50 was > 79 µM (inactive).
`COCCn1nnnc1C(C(C)C)N(Cc1cccnc1)Cc1cc2cc(OC)ccc2[nH]c1=O` (centres undefined) was tested, and the IC50 was > 79 µM (inactive).
`O=C(Nc1nc(-c2ccccn2)cs1)c1cccc(S(=O)(=O)N2CCOCC2)c1` was tested, and the IC50 was 41.5 µM (inactive).
For `COc1cc(/C=C/C(=O)OCC(=O)N2c3ccccc3NC(=O)C2(C)C)cc(OC)c1OC`, the IC50 was > 79 µM (inactive).
In the case of `COc1cc(C(=O)N/N=C/c2ccc(OC(=O)c3ccccc3Cl)cc2)ccc1O`, the IC50 is reported as > 79 µM (inactive).
In the case of `N#C/C(=C1\CCCN1)c1nc2ccccc2c(=O)[nH]1`, the IC50 is reported as > 79 µM (inactive).
`CC(=O)Nc1cccc(-c2cc(NC(C)=O)c3ncc(-c4ccccc4)n3c2)c1` was tested, and the IC50 was 12.8 µM.
With `Cn1c(-c2ccc(Cl)cc2)cnc1N` the IC50 was > 79 µM (inactive).
`CCOCCCNC(=O)CCC(=O)NNc1nc2ccccc2c2nc(-c3ccccc3)nn12` was tested, and the IC50 was 54 µM (inactive).
With `Cc1ccc(C)c(S(=O)(=O)N2CCN(C(=O)Cn3[nH]c(=O)c4ccccc4c3=O)CC2)c1` the IC50 was > 79 µM (inactive).
With `CCN1C(=O)/C(=C/c2nc3ccccc3c(=O)n2-c2ccccc2)c2ccccc21` the IC50 was > 79 µM (inactive).
For `O=c1[nH]c2cc(O)ccc2c2ccccc12`, the IC50 was > 79 µM (inactive).
`COc1ccc(OC)c(N(CC(=O)Nc2cccnc2)S(=O)(=O)c2ccc(OC)c(OC)c2)c1` was tested, and the IC50 was 42.7 µM (inactive).
For `O=C(Oc1cccc2c(=O)[nH]ccc12)c1ccccc1`, the IC50 was 9.07 µM.
With `CN1CCN(Cc2nc3ccccc3c(=O)[nH]2)CC1` the IC50 was > 79 µM (inactive).
`COC(=O)c1cc2ccc(OC)cc2c2cc(OC)c(OC)cc12` was tested, and the IC50 was > 79 µM (inactive).
For `Cc1cnc(C=O)c2cccc([N+](=O)[O-])c12`, the IC50 was 44.6 µM (inactive).
For `CC(=O)c1cccc(Nc2nc3ccccc3n3cnnc23)c1`, the IC50 was > 79 µM (inactive).
With `N#CCCSc1ccccc1NC(=O)c1cc(=O)c2ccccc2o1` the IC50 was > 79 µM (inactive).
For `COCCNC(=O)COC(=O)c1ccc(OCC(=O)Nc2ccccc2OC)c(OC)c1`, the IC50 was 22.9 µM.
In the case of `COc1cccc2cc(-c3cc(=O)oc4ccc(OCC(C)=O)cc34)oc12`, the IC50 is reported as > 79 µM (inactive).
With `COc1cc(-c2cc(NC(C)=O)c3ncc(-c4ccccc4)n3c2)cc(OC)c1OC` the IC50 was > 79 µM (inactive).
`COc1cc2c(cc1OC)CN(c1nc(-c3cccnc3)nc3ccccc13)CC2` was tested, and the IC50 was > 79 µM (inactive).
`CNC(=O)/C(C#N)=C/c1c(N(Cc2ccccc2)Cc2ccccc2)nc2ccccn2c1=O` was tested, and the IC50 was 16 µM.
With `Cc1ccc(-c2n[nH]c(=O)c3ccccc23)cc1S(=O)(=O)NCC1CCCO1` (centres undefined) the IC50 was > 79 µM (inactive).
For `COc1ccc(C2CC(c3cccs3)n3nc(N)nc3N2)cc1` (centres undefined), the IC50 was > 79 µM (inactive).
In the case of `Cc1cc(NC(=O)COc2nnc(-c3ccccc3)c3ccccc23)no1`, the IC50 is reported as > 79 µM (inactive).
In the case of `O=C(Nc1ccccc1)c1cccc2c(-c3cccnc3)coc12`, the IC50 is reported as > 79 µM (inactive).
In the case of `COc1ccc(Cc2n[nH]c(=O)c3ccccc23)cc1OC`, the IC50 is reported as > 79 µM (inactive).
`COc1cc(-c2cc3nc(NCCOc4ccccc4)ccn3n2)cc(OC)c1OC` showed an IC50 of 13.9 µM.
In the case of `COc1cc(-c2cc(NC(C)=O)c3ncc(-c4cc(OC)c(OC)c(OC)c4)n3c2)cc(OC)c1OC`, the IC50 is reported as 5.28 µM.
In the case of `CCOc1cc(-c2cc(-c3ccc(N)cc3)nc(N)c2C#N)ccc1O`, the IC50 is reported as 12.3 µM.
`C=CCOC(=O)C1=C[C@H](c2cn(C(C)=O)c3ccccc23)C[C@H](OCc2ccc(CO)cc2)O1` was tested, and the IC50 was 17.9 µM.
`CCOc1ccccc1NC(=O)c1oc2ccccc2c1NC(=O)C1CCCO1` (centres undefined) showed an IC50 of 10.6 µM.
In the case of `Cc1cc(C)n2nc(C(=O)N/N=C/c3c4ccccc4cc4ccccc34)nc2n1`, the IC50 is reported as > 79 µM (inactive).
With `O=C(O)c1nn(CCOc2ccc(Br)cc2)c(=O)c2ccccc12` the IC50 was > 79 µM (inactive).
`COc1ccc2c(c1OC)C(=O)N1c3ccccc3C(=O)N(c3ccccc3)C21` (centres undefined) was tested, and the IC50 was > 79 µM (inactive).
With `CCOC(=O)N1CCc2c(sc(NC(=O)CN3CCOCC3)c2C(=O)Nc2ccccc2)C1` the IC50 was 54.6 µM (inactive).
`Cc1ccc(S(=O)(=O)N2CCN(C(=O)c3cc(=O)[nH]c4ccccc34)CC2)c(C)c1` showed an IC50 of 16.8 µM.
`Cc1ccc(C)c(S(=O)(=O)N(C(=O)c2ccncc2)c2ccc(OC(=O)c3ccncc3)cc2)c1` was tested, and the IC50 was > 79 µM (inactive).
With `O=C(Nc1cccc2cccnc12)c1ccc2sc([C@H]3C[C@H](O)[C@@H](CO)O3)nc2c1` the IC50 was 14.3 µM.
`O=C(c1cc2nc(-c3ccccc3)cc(-c3ccccc3)n2n1)N1CCN(C(=O)c2ccco2)CC1` gave an IC50 of 9.32 µM.
With `COc1ccc2[nH]c(=O)c(CN(Cc3cccnc3)S(=O)(=O)c3ccccc3F)cc2c1` the IC50 was > 79 µM (inactive).
In the case of `Cc1ccc(CNC(=O)CCc2nc3ccccc3c(=O)[nH]2)cc1`, the IC50 is reported as 13.9 µM.
With `NC(=O)c1nsc(C(=O)N(CCc2ccccc2)C(C(=O)NC2CCCC2)c2ccco2)c1N` (centres undefined) the IC50 was 22.4 µM.
Compound `COc1ccc(S(=O)(=O)N(CCCN2CCCC2=O)Cc2cc3cc(C)c(C)cc3[nH]c2=O)cc1` has an IC50 of 26.9 µM.
With `O=C(CN1C(=O)C2CC=CCC2C1=O)Nc1nc(-c2ccc(F)cc2)cs1` (centres undefined) the IC50 was 10.8 µM.
`Cc1ccc(-n2cc(-c3ccccc3)c3c(N4CCOCC4)ncnc32)cc1` was tested, and the IC50 was > 79 µM (inactive).
Compound `Fc1ccc(CSc2ccc3nnc(-c4cccnc4)n3n2)cc1` has an IC50 of 26 µM.
`COC(=O)c1ccccc1NC(=O)/C=C/c1cc(OC)c(OC)c(OC)c1` was tested, and the IC50 was 22.9 µM.
With `Cc1ccc(C)c(NC(=O)C(Sc2ncnc3ccccc23)c2ccccc2)c1` (centres undefined) the IC50 was > 79 µM (inactive).
For `O=C1N[C@H]2CC=C[C@H]2Nc2ccccc21`, the IC50 was > 79 µM (inactive).
`O=C(/C=C/NNC(=O)c1ccccc1)c1ccc(Br)cc1` was tested, and the IC50 was > 79 µM (inactive).
In the case of `O=c1[nH]c(N2CCN(c3ccccc3)CC2)nc2c1CCC2`, the IC50 is reported as > 79 µM (inactive).
In the case of `COC(=O)c1ccc(C(C(=O)NCc2ccccc2)N(Cc2cccs2)C(=O)c2cnccn2)cc1` (centres undefined), the IC50 is reported as 14.7 µM.
With `COc1cc(OC)cc(C(=O)NNC(=O)CCc2nc3ccccc3c(=O)[nH]2)c1` the IC50 was > 79 µM (inactive).
With `COc1ccc(N/C=C(\C#N)c2nc3ccccc3n2C)c(OC)c1` the IC50 was > 79 µM (inactive).
`Cc1cc(C)cc(N(CCC#N)C(=O)COC(=O)Cn2[nH]c(=O)c3ccccc3c2=O)c1` was tested, and the IC50 was > 79 µM (inactive).
For `COc1cccc(/C=N/Nc2ncnc3scc(-c4ccccc4)c23)c1OC`, the IC50 was > 79 µM (inactive).
For `CCOC(=O)c1c(C)[nH]c(C(=O)COc2ccc3ccc(=O)oc3c2)c1C`, the IC50 was > 79 µM (inactive).
